The subject of data set [1] is HSV-1. Kind of data set: Virucidal activity against HSV-1 in human semen. The conditions noted are these: room temperature, 1 minute.
In the next data set the test system is C. trachomatis. Put plainly: Inactivation of C. trachomatis. The conditions noted are these: 37° C., 10 minutes.
Data set [2] relates to HSV-1. Put plainly: Virucidal activity against HSV-1 in culture medium (MM). It counts as cell-based, Herpes simplex virus type 1. The conditions noted are these: room temperature, 1 minute.
The test system of data set [3] is vaginal mucosa of rabbits. Conditions: rabbit, in vivo.
A further data set deals with VV. Put plainly: Virucidal activity against visna virus (VV) in culture medium (MM). It counts as cell-based. Conditions: room temperature, 1 minute. As for the experimental part:
The lipids were dissolved in ethanol at a concentration of 1 M and stored at 4° C. In each experiment they were suspended in MM by vortexing at the highest speed for 1 min.

The subject of a further data set is Enveloped viruses. Conditions: virucidal activity in cell culture media; cited from earlier work.
The next data set relates to HIV-2. The conditions noted are these: 25 mM, human plasma, 30 min; cited from earlier work.
For a further data set, the system named is HIV-1. Conditions: 25 mM, human plasma, 30 min; cited from earlier work.

SMILES strings stand for the structures.

In the case of `CCCCCCCC(=O)OCC(O)CO` (stereo not shown) [Caprylic acid 1-monoglyceride, caprylic acid 1-monoglyceride], in the data set with HSV-1 [1] (monoglyceride 20 mM), the “Reduction of HSV-1 titer, log10” value turned out to be 1.0 log10. For the same compound, the “Reduction of IFU (log10)” value came to 0.1 log10 in the data set with C. trachomatis (monoglyceride 5 mM in medium), 0.3 log10 in the data set on C. trachomatis (monoglyceride 10 mM in medium) and 0.2 log10 with C. trachomatis (monoglyceride 20 mM in medium). In addition, the entries for the “Reduction of virus titer,log10 HSV-1” value in the data set with HSV-1 [2] (lipid 10 mM in MM) and in the data set with HSV-1 [2] (lipid 20 mM in MM) were 0 log10 and 0.5 log10, respectively.

Turning to `CC(O)CO` (stereo not shown) [propylene glycol], the “effects in the vaginal mucosa of rabbits (in words)” value in data set [3] is recorded as “toxic effects”.

Take `CCCCCCCCCCCC(=O)O` [Lauric acid, lauric acid]: the “Reduction of virus titer,log10 HSV-1” value with HSV-1 [2] (lipid 10 mM in MM) was <1.5 log10; in the data set with HSV-1 [2] (lipid 20 mM in MM), >5.8 log10.

As to `CCCCCCCCCC(=O)OCC(O)CO` (stereo not shown) [Monocaprin, capric acid 1-monoglyceride], the “Reduction of virus titer,log10 VV” value came out at 2.4 log10 with VV (lipid 10 mM in MM) and 3.8 log10 with VV (lipid 20 mM in MM). Also, the “Reduction of HSV-1 titer, log10” value was 3.0 log10 in the data set with HSV-1 [1] (monoglyceride 10 mM) and >4.0 log10 in the data set with HSV-1 [1] (monoglyceride 20 mM). In addition, the “Reduction of IFU (log10)” value is reported as >5.6 log10 with C. trachomatis (monoglyceride 5 mM in medium), >5.6 log10 in the data set on C. trachomatis (monoglyceride 10 mM in medium) and >4.6 log10 in the data set with C. trachomatis (monoglyceride 20 mM in medium). Further, the “Reduction of virus titer,log10 HSV-1” value in the data set with HSV-1 [2] (lipid 2.5 mM in MM) is 2.2 log10; in the data set with HSV-1 [2] (lipid 5 mM in MM), >5.5 log10; in the data set with HSV-1 [2] (lipid 10 mM in MM), >5.3 log10; with HSV-1 [2] (lipid 20 mM in MM) it was >5.8 log10. In addition, the “more active than the corresponding free fatty acid (capric and lauric acids)” value with Enveloped viruses is listed as 10 fold.

On to `CCCCCCCC/C=C\CCCCCCCC(=O)OCC(O)CO` (stereo not shown) [Oleic acid 1-monoglyceride, oleic acid 1-monoglyceride], for which the “Reduction of virus titer,log10 HSV-1” value with HSV-1 [2] (lipid 10 mM in MM) and in the data set on HSV-1 [2] (lipid 20 mM in MM) was <1.0 log10 throughout.

For the compound `CCCCCCCCOC[C@@H](O)CO` [1-0-Octyl-SN-glycerol], the “inactivated HIV-2” value in the data set on HIV-2 is “more than 10^9 fold”. Moreover, the “inactivated HIV-1” value in the data set on HIV-1 is listed as “more than 10^9 fold”.

Take `CCCCCCCCCCCC(=O)OCC(O)CO` (stereo not shown) [Lauric acid 1-monoglyceride, lauric acid 1-monoglyceride]: the “Reduction of HSV-1 titer, log10” value in the data set with HSV-1 [1] (monoglyceride 20 mM) was 2.0 log10. The entries for the “Reduction of IFU (log10)” value in the data set with C. trachomatis (monoglyceride 5 mM in medium), in the data set with C. trachomatis (monoglyceride 10 mM in medium) and in the data set on C. trachomatis (monoglyceride 20 mM in medium) were 0.5 log10, 0.7 log10 and 0.5 log10, respectively. For the same compound, the “Reduction of virus titer,log10 HSV-1” value amounted to 3.0 log10 in the data set on HSV-1 [2] (lipid 5 mM in MM), 3.5 log10 in the data set on HSV-1 [2] (lipid 10 mM in MM) and 3.1 log10 in the data set on HSV-1 [2] (lipid 20 mM in MM). Moreover, the “more active than the corresponding free fatty acid (capric and lauric acids)” value in the data set with Enveloped viruses was 10 fold.

For the compound `CCCCCC/C=C\CCCCCCCC(=O)OCC(O)CO` (stereo not shown) [Palmitoleic acid 1-monoglyceride, palmitoleic acid 1-monoglyceride], in the data set with VV (lipid 10 mM in MM), the “Reduction of virus titer,log10 VV” value worked out at 0.7 log10. Moreover, the “Reduction of virus titer,log10 HSV-1” value in the data set with HSV-1 [2] (lipid 10 mM in MM) and in the data set on HSV-1 [2] (lipid 20 mM in MM) was 0 log10 in each case.

As to `CCCCCCCCCCCCCC(=O)O` [Myristic acid, myristic acid], the “Reduction of virus titer,log10 HSV-1” value in the data set with HSV-1 [2] (lipid 10 mM in MM) and in the data set on HSV-1 [2] (lipid 20 mM in MM) was 0 log10 in each case.

For the compound `CCCCCCCC/C=C\CCCCCCCC(=O)O` [Oleic acid, oleic acid], the “Reduction of virus titer,log10 HSV-1” value in the data set with HSV-1 [2] (lipid 10 mM in MM) and in the data set with HSV-1 [2] (lipid 20 mM in MM) was <1.0 log10 throughout.

Take `CCCCCCCCCC(=O)O` [Capric acid, capric acid]: the “Reduction of virus titer,log10 HSV-1” value in the data set on HSV-1 [2] (lipid 20 mM in MM) was <0.5 log10.

Regarding `CCCCCC/C=C\CCCCCCCC(=O)O` [Palmitoleic acid, palmitoleic acid], the “Reduction of virus titer,log10 HSV-1” value was <1.0 log10 in the data set with HSV-1 [2] (lipid 5 mM in MM) and >5.0 log10 in the data set with HSV-1 [2] (lipid 10 mM in MM).

The values above are taken from patent publication US6596763B1, “Topical formulations containing as a therapeutic active agent fatty acids or fatty alcohols or monoglyceride derivatives thereof for treating of mucosa infections” (priority 1996, dated 2003).
